{
  "source": "ChEMBL document CHEMBL3044539",
  "about": "“Fungichromin: a substance from Streptomyces padanus with inhibitory effects on Rhizoctonia solani” (2003)",
  "key": {"[1]": {"tested_on": "Rhizoctonia solani", "test": "Antifungal activity against Rhizoctonia solani AG-4 RST-04 assessed as mycelial growth inhibition at 80 to 120 ug/ml after 2 days", "format": "functional, organism-based"}, "[2]": {"tested_on": "Rhizoctonia solani", "test": "Antifungal activity against Rhizoctonia solani AG-4 RST-04 assessed as mycelial growth inhibition after 2 days", "format": "functional", "details": "AG-4 RST-04, 48 h"}},
  "note": "Active and inactive are the calls of the source. No cut-off for these calls is given here.",
  "data": [
    {"smiles": "CCCCC[C@@H](O)[C@H]1C(=O)O[C@H](C)[C@@H](O)/C=C/C=C/C=C/C=C/C=C(\\C)[C@@H](O)[C@H](O)[C@H](O)C[C@H](O)C[C@H](O)C[C@H](O)C[C@H](O)C[C@@H]1O", "note": "[PENTAMYCIN]", "values": [
      {"measurement": "growth inhibition (GI)", "setting": "[1]", "value": "Active"},
      {"measurement": "MIC", "setting": "[2]", "value": 72, "unit": "µg/mL"}
    ]}
  ]
}
